Reference: patent US8987195B2 (priority 2012, dated 2015)
pEC50: −log10 of the molar value. Where two headings read alike, the source gives them in different places.

Assays:
HCV genotype 1b replicon = experiment: HCV replicon assay, genotype 1b replicon EC50; assay type: cell-based, Hepatitis C virus; conditions: Hepatitis C virus, genotype 1b replicon, read-out: EC50 [gt-1b]
Method in brief: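 Replicon cells (Neo^r, some luciferase:Neo^r fusion); G418 removed at plating; compound dilution series, 24-48 h. Readout: RNA by 32P-probe hybridization/protection or TaqMan, normalized to cyclophilin A RNA, or luciferase. EC50 vs DMSO control, 4-parameter fit.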

[1] = target: HCV NS3/4A protease genotype 1b (Hepatitis C virus genotype 1b, UniProt P26663); experiment: HCV NS3/4A protease time-resolved fluorescence (TRF) assay, Ki against genotype 1b; assay type: biochemical; conditions: IC50 [gt-1b] (nM), NS3/4A genotype 1b, enzyme 0.2 nM
Method in brief: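 Enzyme was pre-incubated 30 min with inhibitor in HEPES pH 7.5 buffer (150 mM NaCl, 15% glycerol, 10 mM DTT). Reaction ran 2.5 h at room temperature with 25 nM europium TRF peptide substrate, read at ex 340/em 615 nm. Enzyme levels: 0.2 nM (1b), 0.4 nM (A156T), 0.025 nM (3a). Ki came from four-parameter IC50 via IC50=Ki(1+[S]/KM).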

COc1ccc2nc(C(F)(F)F)c3c(c2c1)[C@@H](O)C[C@]1(C[C@H]2C(=O)N[C@]4(C(=O)NS(=O)(=O)C5(C)CC5)C[C@H]4/C=C\CCCCC[C@H](NC(=O)OC(C)(C)C)C(=O)N2C1)O3 [Example 55, tert-Butyl [(1′S,2S,6S,12Z,13aS,14aR,16aS)-1′-hydroxy-9′-methoxy-14a-{[(1-methylcyclopropyl)sulfonyl]carbamoyl}-5,16-dioxo-5′-(trifluoromethyl) -1,1′,2′,5,6,7,8,9,10,11,13a,14,14a,15,16,16a-hexadecahydrospiro[cyclopropa[e]pyrrolo[1,2-a][1,4]diazacyclopentadecine-2,3′-pyrano[2,3-c]quinolin]-6-yl]carbamate]
pEC50 (HCV genotype 1b replicon): 9.24
IC50 [1]: 0.007 nM

COc1ccc2nc(C)c3c(c2c1)[C@H](F)C[C@]1(C[C@H]2C(=O)N[C@]4(C(=O)NS(=O)(=O)C5(C)CC5)C[C@H]4/C=C\CCCCC[C@H](NC(=O)OC(C)(C)C)C(=O)N2C1)O3 [Example 56, tert-Butyl ((1′R,2S,6S,13aS,14aR,16aS,Z)-1′-fluoro-9′-methoxy-5′-methyl-14a-(((1-methylcyclopropyl)sulfonyl)carbamoyl)-5,16-dioxo-1′,2′,3,5,6,7,8,9,10,11,13a,14,14a, 15,16,16a-hexadecahydro-1H-spiro[cyclopropa[e]pyrrolo[1,2-a][1,4]diazacyclopentadecine-2,3′-pyrano[2,3-c]quinolin]-6-yl)carbamate]
pEC50 (HCV genotype 1b replicon; K+ salt): 8.78
IC50 ([1]; K+ salt): 0.008 nM

COc1ccc2nc(C)c3c(c2c1)CC[C@]1(C[C@H]2C(=O)N[C@]4(C(=O)NS(=O)(=O)C5(C)CC5)C[C@H]4/C=C\CCCCC[C@H](Nc4ncccn4)C(=O)N2C1)O3 [Example 57, (2R,6S,13aS,14aR,16aS,Z)-9′-methoxy-5′-methyl-N-((1-methylcyclopropyl)sulfonyl)-5,16-dioxo-6-(pyrimidin-2-ylamino)-1′,2′,3,5,6,7,8,9,10,11,13a,14,14a,15,16,16a-hexadecahydro-1H-spiro[cyclopropa[e]pyrrolo[1,2-a][1,4]diazacyclopentadecine-2,3′-pyrano[2,3-c]quinoline]-14a-carboxamide]
pEC50 (HCV genotype 1b replicon): 8.03
IC50 [1]: 0.137 nM

Cc1nc2ccc(C#N)cc2c2c1O[C@]1(CC2)C[C@H]2C(=O)N[C@]3(C(=O)NS(=O)(=O)C4(C)CC4)C[C@H]3/C=C\CCCCC[C@H](NC(=O)OC(C)(C)C)C(=O)N2C1 [Example 59, tert-Butyl ((2R,6S,13aS,14aR,16aS,Z)-9′-cyano-5′-methyl-14a-(((1-methylcyclopropyl)sulfonyl)carbamoyl)-5,16-dioxo-1′,2′,3,5,6,7,8,9,10,11,13a,14,14a,15,16,16a-hexadecahydro-1H-spiro[cyclopropa[e]pyrrolo[1,2-a][1,4]diazacyclopentadecine-2,3′-pyrano[2,3-c]quinolin]-6-yl)carbamate]
pEC50 (HCV genotype 1b replicon): 8.46
IC50 [1]: 0.019 nM

CC(C)(C)OC(=O)N[C@H]1CCCCC/C=C\[C@@H]2C[C@@]2(C(=O)NS(=O)(=O)C2(C)CC2)NC(=O)[C@@H]2C[C@]3(CCc4c(c(C(F)(F)F)nc5ccc(OCCO)cc45)O3)CN2C1=O [Example 60, tert-Butyl ((2R,6S,13aS,14aR,16aS,Z)-9′-(2-hydroxyethoxy)-14a-(((1-methylcyclopropyl)sulfonyl)carbamoyl)-5,16-dioxo-5′-(trifluoromethyl)-1′,2′,3,5,6,7,8,9,10,11,13a, 14,14a,15,16,16a-hexadecahydro-1H-spiro[cyclopropa[e]pyrrolo[1,2-a][1,4]diazacyclopentadecine-2,3′-pyrano[2,3-c]quinolin]-6-yl)carbamate]
pEC50 (HCV genotype 1b replicon): 8.91
IC50 [1]: 0.009 nM
